Source: patent publication US4816482A, “Radioprotective agents having an amino-thioalkyl structure” (priority 1983, dated 1989)
Structures can show the parent of a compound that is named as a salt. Where two headings read alike, the source gives them in different places.

Assays:
mice [1] = assay: Radioprotective activity: survival at the 30th day after irradiation; assay type: in vivo; conditions: for responders at 400 mg/kg: 400 mg/kg i.p.; for responders at 1000 mg/kg: 1,000 mg/kg i.p.; for responders at 625 mg/kg: 625 mg/kg i.p.; for radioprotective activity (in words): mouse, in vivo; for responders at 500 mg/kg: 500 mg/kg i.p.
Protocol: This study of radioprotective activity was carried out according to a technique described by M. Fatome at al., Eur. J. Med. Chem. 1977, 12, (1), 93. […] This dose is equal to 950 Rad.
More complete studies are recorded in Table II.

mice [2] = assay: Acute toxicity (LD50), i.p.; assay type: in vivo; conditions: for LD50: Table I
[3] = Acute toxicity (LD50), i.p.; assay type: in vivo, mice; conditions: mouse, in vivo, ip
[4] = Mus musculus, light or radiation study, ip, 720 h, Table I, 750 mg/kg i.p., 15' before irradiation at 900 or 950 Rad, read-out: % survival at the 30th day
[5] = Mus musculus, light or radiation study, ip, 720 h, Table I, 15' before irradiation at 900 or 950 Rad, read-out: % survival at the 30th day
[6] = Mus musculus, light or radiation study, ip, 720 h, read-out: % survival at the 30th day, Table I, 750 mg/kg i.p., 15' before irradiation at 900 or 950 Rad
[7] = Mus musculus, light or radiation study, ip, 720 h, read-out: % survival at 30 days, Table II, 750 mg/kg i.p., 15' before irradiation, 900 Rad
[8] = Mus musculus, light or radiation study, ip, 720 h, read-out: % survival at 30 days, Table II, 750 mg/kg i.p., 2 hours before irradiation, 900 Rad
[9] = Mus musculus, light or radiation study, ip, 720 h, Table II, 15' before irradiation, 900 Rad, read-out: % survival at 30 days
[10] = Mus musculus, light or radiation study, ip, 720 h, Table II, 15' before irradiation, 1,100 Rad, read-out: % survival at 30 days
[11] = Mus musculus, light or radiation study, ip, 720 h, Table II, 15' before irradiation, 950 Rad, read-out: % survival at 30 days

Br.CC(=O)SCCNC(=O)CN [Example 2, HYDROBROMIDE]
responders at 187 mg/kg (mice [1]; Mus musculus, light or radiation study, ip, 720 h, Table I, 187 mg/kg i.p., 15' before irradiation at 900 or 950 Rad, read-out: % survival at the 30th day): 67%
responders at 750 mg/kg (mice [1]; [4]): 100%

Br.CC(=O)SCCNC(=O)CN [Example 2]
LD50 (mice [2]): 1,500 mg/kg

Br.CC(=O)SCCNC(=O)[C@H](C)N [Example 4, HYDROBROMIDE]
responders at 188 mg/kg (mice [1]; Mus musculus, light or radiation study, ip, 720 h, Table I, 188 mg/kg i.p., 15' before irradiation at 900 or 950 Rad): 40%
responders at 750 mg/kg (mice [1]; [4]): 80%

Br.CC(=O)SCCNC(=O)[C@H](C)N [Example 4]
LD50 (mice [2]): 1,500 mg/kg

Br.CC(=O)SCCNC(=O)CCCN [Example 6, HYDROBROMIDE]
responders at 400 mg/kg (mice [1]; [5]): 60%

Br.CC(=O)SCCNC(=O)CCCN [Example 6]
LD50 (mice [2]): 800 mg/kg

CC(=O)SCCNC(=O)CN [Example 8]
LD50 ([3]; Table I): 1200 mg/kg
LD50 ([3]; Table II): 1200 mg/kg
% survival at the 30th day (mice [1]; Table I, 750 mg/kg i.p., 15' before irradiation at 900 or 950 Rad): 93%
% survival at 30 days (mice [1]; Table II, 187 mg/kg i.p., 15' before irradiation, 900 Rad): 0%
% survival at 30 days (mice [1]; Table II, 750 mg/kg i.p., 15' before irradiation, 900 Rad): 93%
% survival at 30 days (mice [1]; Table II, 750 mg/kg i.p., 15' before irradiation, 1,100 Rad): 50%

NCC(=O)NCCSC(=O)C(Cl)Cl.O=C(O)C(F)(F)F [Example 10, N-GLYCYL-S-(DICHLOROACETYL)CYSTEAMINE TRIFLUOROACETATE]
LD50 (mice [2]): 800 mg/kg
responders at 800 mg/kg (mice [1]; Mus musculus, light or radiation study, ip, 720 h, Table I, 800 mg/kg i.p., 15' before irradiation at 900 or 950 Rad): 40%

Br.Br.NCC(=O)NCCSSCCNC(=O)CN [Example 16, N,N'-[…] DIHYDROBROMIDE]
LD50 (mice [2]): 1,500 mg/kg
responders at 750 mg/kg (mice [1]; [6]): 100%

NCC(=O)NCCSSCCNC(=O)CN.O=C(O)C(F)(F)F.O=C(O)C(F)(F)F [Example 18, N,N'-[…] DI(TRIFLUOROACETATE)]
LD50 ([3]; Table I): 1200 mg/kg
LD50 ([3]; Table II): 1250 mg/kg
responders at 47 mg/kg (mice [1]; Mus musculus, light or radiation study, ip, 720 h, read-out: % survival at 30 days, Table II, 47 mg/kg i.p., 15' before irradiation, 900 Rad): 0%
responders at 94 mg/kg (mice [1]; Mus musculus, light or radiation study, ip, 720 h, read-out: % survival at 30 days, Table II, 94 mg/kg i.p., 15' before irradiation, 900 Rad): 30%
responders at 187 mg/kg (mice [1]; Mus musculus, light or radiation study, ip, 720 h, read-out: % survival at 30 days, Table II, 187 mg/kg i.p., 15' before irradiation, 900 Rad): 90%
responders at 187 mg/kg (mice [1]; Mus musculus, light or radiation study, ip, 720 h, read-out: % survival at 30 days, Table II, 187 mg/kg i.p., 15' before irradiation, 1,100 Rad): 0%
responders at 750 mg/kg (mice [1]; [7]): 100%
responders at 750 mg/kg (mice [1]; Mus musculus, light or radiation study, ip, 720 h, read-out: % survival at 30 days, Table II, 750 mg/kg i.p., 15' before irradiation, 1,300 Rad): 10%
responders at 750 mg/kg (mice [1]; [8]): 60%
responders at 1000 mg/kg (mice [1]; Mus musculus, light or radiation study, ip, 720 h, read-out: % survival at 30 days, Table II, 15' before irradiation, 1,300 Rad): 0%
% survival at the 30th day (mice [1]; ip, 750 mg/kg, 720 h): 100%

Br.Br.C[C@H](N)C(=O)NCCSSCCNC(=O)[C@H](C)N [Example 19, N,N'-[…] DIHYDROBROMIDE]
LD50 ([3]; Table I): 800 mg/kg
responders at 400 mg/kg (mice [1]; Mus musculus, light or radiation study, ip, 720 h, read-out: % survival at the 30th day, Table I, 15' before irradiation at 900 or 950 Rad): 100%

CC(=O)SCCNC(=O)[C@H](C)N.O=C(O)C(F)(F)F [Example 22, TRIFLUOROACETATE]
responders at 156 mg/kg (mice [1]; Mus musculus, ip, 720 h, Table II, 156 mg/kg i.p., time and Rad not given, read-out: % survival at 30 days): 0%
responders at 625 mg/kg (mice [1]; [5]): 100%
responders at 625 mg/kg (mice [1]; Mus musculus, light or radiation study, ip, 720 h, Table II, 2 (hours, cut off) before irradiation, 900 Rad, read-out: % survival at 30 days): 10%
responders at 625 mg/kg (mice [1]; [9]): 100%
responders at 625 mg/kg (mice [1]; [10]): 50%

CC(=O)SCCNC(=O)[C@H](C)N.O=C(O)C(F)(F)F [Example 22]
LD50 (mice [2]): 1,250 mg/kg
toxicity (in words) (mice [2]; mouse, in vivo): low toxicity
LD50 ([3]; Table II): 1250 mg/kg
radioprotective activity (in words) (mice [1]): good radioprotection

CC(=O)NC(C)(C)CSC(=O)CN.O=C(O)C(F)(F)F [Example 24, TRIFLUOROACETATE]
responders at 750 mg/kg (mice [1]; [7]): 70%
responders at 750 mg/kg (mice [1]; Mus musculus, light or radiation study, ip, 720 h, read-out: % survival at 30 days, Table II, 750 mg/kg i.p., 15' before irradiation, 1,100 Rad): 13%
responders at 750 mg/kg (mice [1]; [8]): 50%
responders at 750 mg/kg (mice [1]; [6]): 70%

CC(=O)NC(C)(C)CSC(=O)CN.O=C(O)C(F)(F)F [Example 24]
LD50 ([3]; Table I): 1500 mg/kg
LD50 ([3]; Table II): 1500 mg/kg
radioprotective activity (in words) (mice [1]): show radioprotective activity

CC(=O)SCC(C)(C)NC(=O)CN [Example 26, TRIFLUOROACETATE]
LD50 ([3]; Table I): 1200 mg/kg
LD50 ([3]; Table II): 1200 mg/kg
responders at 750 mg/kg (mice [1]; Mus musculus, ip, 720 h, Table II, 750 mg/kg i.p., 4th entry, time and Rad not given, read-out: % survival at 30 days): 0%
responders at 750 mg/kg (mice [1]; [4]): 60%
responders at 187 mg/kg (mice [1]; Mus musculus, light or radiation study, ip, 720 h, Table II, 187 mg/kg i.p., 15' before irradiation, 900 Rad, read-out: % survival at 30 days): 40%
responders at 750 mg/kg (mice [1]; Mus musculus, light or radiation study, ip, 720 h, Table II, 750 mg/kg i.p., 15' before irradiation, 900 Rad, read-out: % survival at 30 days): 60%
responders at 750 mg/kg (mice [1]; Mus musculus, light or radiation study, ip, 720 h, Table II, 750 mg/kg i.p., 2 hours before irradiation, 900 Rad, read-out: % survival at 30 days): 70%
radioprotective activity (in words) (mice [1]): show radioprotective activity

CC(=O)SCCNC(=O)CNC(=O)CN.O=C(O)C(F)(F)F [Example 28, TRIFLUOROACETATE]
responders at 1000 mg/kg (mice [1]; [5]): 100%
responders at 1000 mg/kg (mice [1]; [9]): 100%
responders at 1000 mg/kg (mice [1]; [10]): 0%
responders at 1500 mg/kg (mice [1]; Mus musculus, light or radiation study, ip, 720 h, Table II, 1,500 mg/kg i.p., 15' before irradiation, Rad not printed (1,100 in text), read-out: % survival at 30 days): 100%

CC(=O)SCCNC(=O)CNC(=O)CN.O=C(O)C(F)(F)F [Example 28]
LD50 [3]: > 2000 mg/kg
LD50 ([3]; Table I): > 2000 mg/kg
LD50 ([3]; Table II): > 2000 mg/kg
survival at 30 days (mice [1]; mice, 1,500 mg/kg (i.p.) 15 minutes before irradiation of 1,100 Rad): 100%

CC(=O)OC(CNC(=O)CN)CSSCC(CNC(=O)CN)OC(C)=O (stereo not drawn) [Example 31, 1,2-DI(3-GLYCYLAMINO-2-ACETOXYPROPYL)[…](TRIFLUOROACETATE)]
LD50 ([3]; Table I): 750 mg/kg
LD50 ([3]; Table II): 750 mg/kg
% survival at 30 days (mice [1]; ip, 93.7 mg/kg, 720 h): 0%
% survival at the 30th day (mice [1]; ip, 375 mg/kg): 60%

CC(=O)NCCSC(=O)CN.O=C(O)C(F)(F)F [Example 34, TRIFLUOROACETATE]
responders at 500 mg/kg (mice [1]; [5]): 70%
responders at 125 mg/kg (mice [1]; Mus musculus, light or radiation study, ip, 720 h, Table II, 125 mg/kg i.p., 15' before irradiation, 950 Rad, read-out: % survival at 30 days): 20%
responders at 500 mg/kg (mice [1]; [11]): 70%

NCC(=O)NCC(=O)NCCSSCCNC(=O)CNC(=O)CN.O=C(O)C(F)(F)F.O=C(O)C(F)(F)F [Example 36, N,N'-DI(GLYCYLGLYCYL)CYSTAMINE DI(TRIFLUOROACETATE)]
LD50 ([3]; Table I): 2000 mg/kg
LD50 ([3]; Table II): 2000 mg/kg
responders at 1000 mg/kg (mice [1]; [5]): 30%
responders at 250 mg/kg (mice [1]; Mus musculus, light or radiation study, ip, 720 h, Table II, 250 mg/kg i.p., 15' before irradiation, 950 Rad, read-out: % survival at 30 days): 10%
responders at 1000 mg/kg (mice [1]; [11]): 30%
